Two molecules from patent US5763443A, “MDR resistance treatment and novel pharmaceutically active riminophenazines” (priority 1994, dated 1998) can be followed below.

The structures appear in SMILES notation. Converted amounts (≈) assume the structure as drawn. “And” between values parts separate entries of the source, which are not always exact repeats. Identical values can stand only once. Like-named read-outs stand apart in the source and are kept apart here. Bounds are passed on as bounds.

Series [1] has as its system human small cell lung cancer cell line H69/P. Put plainly: MTT assay, 7 day exposure, sensitivity of parent cell line H69/P to chemotherapeutic agents. In kind it is cell-based. As to conditions: H69/P; CsA 5 μg/ml, clofazimine 1 μg/ml or B669 0.5 μg/ml. The procedure:
The riminophenazines of the above formula (I), contain an imino group. […] The potency of compounds of the above general formula, as inhibitors of multi-drug resistance, was assessed by sensitization of a P-glycoprotein positive cell line to drugs associated with this form of resistance. A human small cell lung cancer cell line H 69/P as well as a multi-drug resistance (MDR) sub-line H69/LX4 were used. These cell lines were obtained from the Medical Research Council Clinical Oncology and Radiotherapeutics Unit, Hills Road, Cambridge, England. The H69/LX4 line was selected in vitro by progressive exposure to increasing concentrations of doxorubicin in order to increase P-glycoprotein expression.
The cell lines used were human small cell lung cancer cell line HP69/P and a multi-drug resistant (MDR) sub-line H69/LX4, both of which were supplied by the MRC Clinical Oncology and Radiotherapeutics Unit, Hills Road, Cambridge, England. The maintenance of the cell lines and drug response assays was done as described by Twentyman et al in British Journal of Cancer Volume 65 pages 335-340. The H69/LX4 line was originally described by Twentyman et al in British Journal of Cancer Volume 53, pages 529-637 (1986).
The data in parenthesis represents fold sensitivity compared with the chemotherapeutic agent without the MDR inhibitor.

The subject of series [2] is multi-drug resistant (MDR) lung carcinoma cell line H69/LX4. Put plainly: in vitro. As to conditions: for IC50: Homo sapiens; for INCREASED SENSITIVITY H69/Lx4: Table VIII, values equal IC50 NONE / IC50 with VB 25 ng/ml of Table VII, 10080 min.
Series [3] deals with MDR leukaemia cell line K562/MMB. Put plainly: cells. The conditions noted are these: for INCREASED SENSITIVITY K 562/MMB: Table VIII, values equal IC50 NONE / IC50 with VB 3 ng/ml of Table VII, 10080 min; for MDR activity / sensitivity against cell line K562/MMP: compared with known reference compound B4100.
A further series concerns H69/LX4 cells. Put plainly: [14C]-vinblastine accumulation in MDR cell line. The series is classed as cell-based, human. As to conditions: 1 hour pretreatment, 30 minutes [14C]-vinblastine. The procedure: The effect of riminophenazines on the accumulation of [^14 C]-vinblastine was investigated. For these experiments, both of the above cell lines (H69/LX4 and H69/P) were prepared as described by Coley et al (Biochem. Pharmacal 38, 4467-4475 (1989)). After a 1 hour pretreatment with the MDR reversal agents, cells (1×10^6 /ml) were exposed to […] [^14 C]-vinblastine (1 μCi specific activity) for 30 minutes.

The next series in a line: in vitro. The conditions noted are these: human, h69/lx4 cells.
A short description of series [4]: bio-availability (no method given).
Where [5] appears, read: H69/LX4, CsA 5 μg/ml, clofazimine 1 μg/ml or B669 0.5 μg/ml.
The mark [6] stands for this setting: 168 h, read-out: IC 50 H69/Lx4 NONE.
Setting [7] is: read-out: IC 50 H69/Lx4 DOX 12 ng/ml.
[8] abbreviates: read-out: IC 50 H69/Lx4 VB 25 ng/ml.

In the case of `c1ccc(Nc2cc3nc4ccccc4n(-c4ccccc4)c-3cc2=NC2CCCCC2)cc1` [Compound B669], in series [1], the “fold sensitivity to Cyclophosphamide compared with agent without MDR inhibitor” value was 1.0 fold, the “fold sensitivity to Daunorubicin compared with agent without MDR inhibitor” value stood at 1.2 fold, the “fold sensitivity to Doxorubicin compared with agent without MDR inhibitor” value is 1.0 fold and the “fold sensitivity to Etoposide compared with agent without MDR inhibitor” value amounted to 1.2 fold. Further, in series [1], the “fold sensitivity to Methotrexate compared with agent without MDR inhibitor” value came out at 1.0 fold, the “fold sensitivity to Mitomycin C compared with agent without MDR inhibitor” value is given as 0.7 fold and the “fold sensitivity to Vinblastine compared with agent without MDR inhibitor” value stood at 1.1 fold. In addition, in series [2] (setting [5]), the “fold sensitivity to Cyclophosphamide compared with agent without MDR inhibitor” value is listed as 1.1 fold, the “fold sensitivity to Daunorubicin compared with agent without MDR inhibitor” value stood at 2.4 fold, the “fold sensitivity to Doxorubicin compared with agent without MDR inhibitor” value is recorded as 6.9 fold and the “fold sensitivity to Etoposide compared with agent without MDR inhibitor” value was found to be 14.4 fold. For the same molecule, in series [2] (setting [5]), the “fold sensitivity to Methotrexate compared with agent without MDR inhibitor” value is 0.9 fold; the “fold sensitivity to Mitomycin C compared with agent without MDR inhibitor” value worked out at 2.5 fold; the “fold sensitivity to Vinblastine compared with agent without MDR inhibitor” value was 13.7 fold and ~13 fold. Moreover, the IC50 in series [2] (setting [6]) came out at 1 µg/mL (≈ 2.25 µM). In series [2] (setting [7]), the IC50 worked out at 0.996 µg/mL (≈ 2.24 µM). Moreover, the IC50 in series [2] (setting [8]) came to 0.254 µg/mL (≈ 0.571 µM). In addition, the “INCREASED SENSITIVITY H69/Lx4” value in series [2] is listed as 3.94. In series [3] (Homo sapiens, K562, read-out: IC 50 K562/MMB VB 3 ng/ml, Table VII, with vinblastine 3 ng/ml), the IC50 is 0.023 µg/mL (≈ 0.0517 µM). Besides, in series [3], the “INCREASED SENSITIVITY K 562/MMB” value worked out at 6.04 and the “MDR activity / sensitivity against cell line K562/MMP” value is listed as “good activity”. Also, the “vinblastine accumulation in the MDR cell line” value in the series on H69/LX4 cells was “significant enhancement”.

Consider `CC1(C)CC(N=c2cc3n(-c4cc(Cl)c(Cl)c(Cl)c4)c4ccccc4nc-3cc2Nc2cc(Cl)c(Cl)c(Cl)c2)CC(C)(C)N1` [Compound B4169, N,5-bis(3,4,5-trichiorophenyl)-3,5-dihydro-3-[(2',2',6',6'-tetramethyl-4-piperidyl)-imino]-2-phenazinamine], for which the MNTC at 168 h in the series “in vitro” is greater than 12.5 µg/mL. Besides, the “MDR reversal properties” value in series [2] (H69/LX4, with doxorubicin 12,5 ng/ml or vinblastine 25 ng/ml, FIGS. 4 to 7) is listed as “Very good MDR reversal properties”. Further, the IC50 in series [2] (setting [6]) was found to be 1.57 µg/mL (≈ 2.21 µM); in series [2] (setting [7]), 1.08 µg/mL (≈ 1.53 µM); in series [2] (setting [8]), 0.213 µg/mL (≈ 0.301 µM). The “INCREASED SENSITIVITY H69/Lx4” value in series [2] was 7.36. Besides, the “INCREASED SENSITIVITY K 562/MMB” value in series [3] worked out at 24.66. In addition, the “MDR activity / sensitivity against cell line K562/MMP” value in series [3] is “increased substantially and unexpectedly”. In addition, in series [4], the “bio-availability” value is “good bio-availability”.
